For one data set, the system named is CCRF-CEM. Nature of the data set: Cytotoxicity against human CCRF-CEM cells by CellTiter-Glo 2.0 assay. The data set is classed as functional, cell-based.
The test system of the next data set is HeLa S3. Nature of the data set: Cytotoxicity against human HeLa S3 cells by CellTiter-Glo 2.0 assay. It is filed as functional, cell-based.
Data set [1] can be described thus: Cytotoxicity against mouse J774.A1 cells assessed as cell viability at 10 uM incubated for 5 hrs by Cell Titer-Glo Luminescent Cell Viability assay relative to control. The data set is classed as toxicity, cell-based. The conditions noted are these: read-out: Activity.
For a further data set, the system named is HL-60. Nature of the data set: Cytotoxicity against human HL-60 cells by CellTiter-Glo 2.0 assay. The data set is classed as functional, cell-based.
The test system of a further data set is HEK293. Nature of the data set: Cytotoxicity against AC1 expressed HEK293 cells by CellTiter-Glo 2.0 assay relative to control. It is filed as toxicity, cell-based. On the set-up: concentration or dose not given beside the values. The settings on record: human.
Another data set concerns HepG2. Nature of the data set: Cytotoxicity against human HepG2 cells by CellTiter-Glo 2.0 assay. The data set is classed as functional, cell-based.
The next data set deals with NHDF. Nature of the data set: Cytotoxicity against human NHDF cells by CellTiter-Glo 2.0 assay. The data set is classed as toxicity, cell-based.
A short description of data set [2]: Inhibition of Bordetella pertussis Adenylate cyclase toxin in mouse J774.A1 cells preincubated for 5 hrs followed by ACT addition and measured after 30 mins by CatchPointcAMP immunoassay method. The data set is classed as cell-based.

These results are taken from ChEMBL document CHEMBL5390272, “Discovery of a potent and selective human AC2 inhibitor based on 7-deazapurine analogues of adefovir” (Bioorg Med Chem, 2023).

A value given as a limit tells only on which side of the number the result lay.

Take `C=C(C)c1cn(CCOCP(=O)(N[C@@H](Cc2ccccc2)C(=O)OC(C)C)N[C@@H](Cc2ccccc2)C(=O)OC(C)C)c2ncnc(N)c12`: the IC50 with CCRF-CEM is 5.64 µM; in the data set with HeLa S3, > 10 µM; in the data set on HL-60, 4.62 µM; with HepG2, 8.73 µM; with NHDF, > 10 µM; in data set [2], > 10 µM. Besides, the viability at 5 h, 10 µM in data set [1] came to 81%. Also, the Activity with HEK293 worked out at 31%.
For the compound `CC(C)OC(=O)[C@H](Cc1ccccc1)NP(=O)(COCCn1cc(C(C)C)c2c(N)ncnc21)N[C@@H](Cc1ccccc1)C(=O)OC(C)C`, the IC50 is 6.54 µM with CCRF-CEM; > 10 µM in the data set with HeLa S3; 7.34 µM with HL-60; > 10 µM in the data set on HepG2; > 10 µM in the data set with NHDF; > 10 µM in data set [2]. For the same compound, the viability at 5 h, 10 µM in data set [1] worked out at 121%. Further, in the data set on HEK293, the Activity was found to be 51%.
For `CC(C)OC(=O)[C@H](Cc1ccccc1)NP(=O)(COCCn1cc(-c2cccc(C(N)=O)c2)c2c(N)ncnc21)N[C@@H](Cc1ccccc1)C(=O)OC(C)C`, the IC50 was > 10 µM in the data set with CCRF-CEM; > 10 µM with HeLa S3; 5.75 µM in the data set on HL-60; > 10 µM in the data set on HepG2; > 10 µM in the data set on NHDF; 2.5 µM in data set [2]. For the same compound, the viability at 5 h, 10 µM in data set [1] worked out at 85%. The Activity in the data set on HEK293 was determined as 94%.
In the case of `CC(C)OC(=O)[C@H](Cc1ccccc1)NP(=O)(COCCn1cc(-c2cccc(C#N)c2)c2c(N)ncnc21)N[C@@H](Cc1ccccc1)C(=O)OC(C)C`, the IC50 in the data set with CCRF-CEM is 3.85 µM; in the data set on HeLa S3 it was 10.1 µM; in the data set with HL-60 it was 3.22 µM; in the data set with HepG2, 9.43 µM; in the data set with NHDF, > 10 µM; in data set [2], 1.42 µM. Also, the viability at 5 h, 10 µM in data set [1] turned out to be 111%. The Activity in the data set with HEK293 was determined as 29%.
On to `CC(C)OC(=O)[C@H](Cc1ccccc1)NP(=O)(COCCn1cc(-c2ccccc2)c2c(N)ncnc21)N[C@@H](Cc1ccccc1)C(=O)OC(C)C`, for which the IC50 in the data set with CCRF-CEM is 4.74 µM; with HeLa S3, 5.28 µM; in the data set on HL-60, 4.73 µM; in the data set with HepG2, 6.58 µM; in the data set with NHDF, > 10 µM; in data set [2], 13.3 µM. In addition, the viability at 5 h, 10 µM in data set [1] stood at 82%. Further, in the data set on HEK293, the Activity is recorded as -18%.
On to `CC(C)OC(=O)[C@H](Cc1ccccc1)NP(=O)(COCCn1cc(-c2ccc([N+](=O)[O-])cc2)c2c(N)ncnc21)N[C@@H](Cc1ccccc1)C(=O)OC(C)C`, for which the half-maximal inhibitory concentration (IC50) in the data set with CCRF-CEM was 4.08 µM; in the data set with HeLa S3 it was 2.95 µM; with HL-60 it was 4.58 µM; in the data set on HepG2, > 10 µM; with NHDF it was > 10 µM; in data set [2], 1.26 µM. In addition, in data set [1], the viability at 5 h, 10 µM was found to be 113%. The Activity in the data set with HEK293 was found to be 97%.
For `CCOC(=O)[C@H](C)NP(=O)(COCCn1cc(-c2ccc(OC)cc2)c2c(N)ncnc21)Oc1ccccc1` (stereo partly drawn), the IC50 in the data set with CCRF-CEM was > 10 µM; in the data set on HeLa S3 it was > 10 µM; in the data set with HL-60, > 10 µM; in the data set on HepG2 it was > 10 µM; in the data set on NHDF it was > 10 µM; in data set [2], 5.41 µM. In data set [1], the viability at 5 h, 10 µM amounted to 104%.
Turning to `CC(C)OC(=O)[C@H](Cc1ccccc1)NP(=O)(COCCn1cc(-c2ccccn2)c2c(N)ncnc21)N[C@@H](Cc1ccccc1)C(=O)OC(C)C`, the IC50 is 5.77 µM in the data set with CCRF-CEM; 7.86 µM with HeLa S3; 5.18 µM in the data set on HL-60; > 10 µM in the data set with HepG2; > 10 µM in the data set with NHDF; 1.06 µM in data set [2]. In addition, the viability at 5 h, 10 µM in data set [1] came to 104%. In the data set on HEK293, the Activity is reported as -17%.
In the case of `CC(C)OC(=O)[C@H](Cc1ccccc1)NP(=O)(COCCn1cc(-c2cccc(-c3nn[nH]n3)c2)c2c(N)ncnc21)N[C@@H](Cc1ccccc1)C(=O)OC(C)C`, the IC50 (in the data set on CCRF-CEM; in the data set on HeLa S3; in the data set with HL-60; in the data set on HepG2; in the data set with NHDF; in data set [2]) was > 10 µM each time. For the same compound, the viability at 5 h, 10 µM in data set [1] was determined as 94%. For the same compound, the Activity in the data set on HEK293 was determined as 110%.
For the compound `COc1ccc(-c2cn(CCOCP(=O)(N[C@@H](Cc3ccccc3)C(=O)OC(C)C)N[C@@H](Cc3ccccc3)C(=O)OC(C)C)c3ncnc(N)c23)cc1`, the IC50 was 5.81 µM with CCRF-CEM; 6.52 µM in the data set on HL-60; > 10 µM in the data set with HepG2; > 10 µM in the data set on NHDF; 1.49 µM in data set [2]. Besides, the viability at 5 h, 10 µM in data set [1] was 112%. Moreover, in the data set on HEK293, the Activity was -17%.
As to `Cc1cn(CCOCP(=O)(N[C@@H](Cc2ccccc2)C(=O)OC(C)C)N[C@@H](Cc2ccccc2)C(=O)OC(C)C)c2ncnc(N)c12`, the IC50 with CCRF-CEM is > 10 µM; in the data set with HeLa S3, > 10 µM; in the data set on HL-60, 7.33 µM; in the data set on HepG2, 9.73 µM; in the data set on NHDF it was > 10 µM; in data set [2] it was 1.47 µM. Moreover, the viability at 5 h, 10 µM in data set [1] is 112%. Besides, the Activity in the data set on HEK293 came to 93%.
For `CC(C)OC(=O)[C@H](Cc1ccccc1)NP(=O)(COCCn1cc(-c2cccs2)c2c(N)ncnc21)N[C@@H](Cc1ccccc1)C(=O)OC(C)C`, the IC50 in the data set on CCRF-CEM is 0.79 µM; with HeLa S3, 1.09 µM; in the data set with HL-60, 0.56 µM; in the data set on HepG2 it was 1.02 µM; in the data set on NHDF, 0.4 µM. For the same compound, the viability at 5 h, 10 µM in data set [1] came to 36%. The Activity in the data set on HEK293 is -9%.
Take `CC(C)OC(=O)[C@H](Cc1ccccc1)NP(=O)(COCCn1cc(-c2cccc(C(=O)O)c2)c2c(N)ncnc21)N[C@@H](Cc1ccccc1)C(=O)OC(C)C`: the IC50 is > 10 µM with CCRF-CEM; > 10 µM with HeLa S3; > 10 µM in the data set with HL-60; > 10 µM in the data set on HepG2; > 10 µM with NHDF; 6.09 µM in data set [2]. For the same compound, the viability at 5 h, 10 µM in data set [1] was 104%. In addition, the Activity with HEK293 amounted to 115%.
As for `CC(C)OC(=O)[C@H](Cc1ccccc1)NP(=O)(COCCn1cc(-c2cccc(S(N)(=O)=O)c2)c2c(N)ncnc21)N[C@@H](Cc1ccccc1)C(=O)OC(C)C`, the IC50 is 5.56 µM in the data set with CCRF-CEM; > 10 µM in the data set with HeLa S3; 4.8 µM in the data set with HL-60; > 10 µM with HepG2; > 10 µM in the data set with NHDF; 3.41 µM in data set [2]. Also, in data set [1], the viability at 5 h, 10 µM worked out at 114%. Moreover, the Activity in the data set on HEK293 was 110%.
`CC(C)OC(=O)[C@H](Cc1ccccc1)NP(=O)(COCCn1cc(-c2ccco2)c2c(N)ncnc21)N[C@@H](Cc1ccccc1)C(=O)OC(C)C`: the IC50 is 0.99 µM in the data set on CCRF-CEM; 1.29 µM in the data set on HeLa S3; 0.66 µM in the data set with HL-60; 0.99 µM in the data set with HepG2; 0.35 µM in the data set with NHDF. In data set [1], the viability at 5 h, 10 µM was 43%. The Activity with HEK293 is given as -9%.
For `CC(C)OC(=O)[C@H](Cc1ccccc1)NP(=O)(COCCn1cc(-c2cncnc2)c2c(N)ncnc21)N[C@@H](Cc1ccccc1)C(=O)OC(C)C`, the IC50 (with CCRF-CEM; in the data set with HeLa S3; in the data set with HL-60; with HepG2; in the data set on NHDF; in data set [2]) was > 10 µM throughout. In addition, the viability at 5 h, 10 µM in data set [1] was 128%. In addition, the Activity in the data set on HEK293 is listed as 102%.
As to `COc1ccc(-c2cn(CCOCP(=O)(OCOC(=O)C(C)(C)C)OCOC(=O)C(C)(C)C)c3ncnc(N)c23)cc1`, the IC50 with CCRF-CEM is > 10 µM; in the data set with HeLa S3 it was > 10 µM; in the data set with HL-60 it was > 10 µM; in the data set with HepG2, > 10 µM; in the data set with NHDF, > 10 µM; in data set [2], 10.2 µM. Also, the viability at 5 h, 10 µM in data set [1] was 85%.
For `CC(C)OC(=O)[C@H](Cc1ccccc1)NP(=O)(COCCn1cc(-c2cccc(NS(C)(=O)=O)c2)c2c(N)ncnc21)N[C@@H](Cc1ccccc1)C(=O)OC(C)C`, the IC50 is 6.92 µM in the data set on CCRF-CEM; 15.2 µM in the data set with HeLa S3; 7.08 µM in the data set with HL-60; > 10 µM in the data set on HepG2; > 10 µM with NHDF; 2.95 µM in data set [2]. Besides, the viability at 5 h, 10 µM in data set [1] is 87%. The Activity in the data set on HEK293 was 98%.
In the case of `COc1cccc(-c2cn(CCOCP(=O)(N[C@@H](Cc3ccccc3)C(=O)OC(C)C)N[C@@H](Cc3ccccc3)C(=O)OC(C)C)c3ncnc(N)c23)c1`, the IC50 in the data set with CCRF-CEM is 4.85 µM; with HeLa S3, 9.16 µM; in the data set with HL-60, 5.47 µM; in the data set with HepG2, 13.9 µM; in the data set on NHDF it was > 10 µM; in data set [2], 4.8 µM. Besides, the viability at 5 h, 10 µM in data set [1] came to 94%. Besides, in the data set on HEK293, the Activity is -14%.
In the case of `COc1ccccc1-c1cn(CCOCP(=O)(N[C@@H](Cc2ccccc2)C(=O)OC(C)C)N[C@@H](Cc2ccccc2)C(=O)OC(C)C)c2ncnc(N)c12`, the IC50 in the data set with CCRF-CEM was 6.2 µM; with HeLa S3, 3.65 µM; with HL-60, 6.61 µM; in the data set on HepG2 it was 4.57 µM; in the data set on NHDF it was > 10 µM; in data set [2], 2.17 µM. In addition, the viability at 5 h, 10 µM in data set [1] is 112%. Moreover, in the data set with HEK293, the Activity is reported as -12%.
Consider `C#Cc1cn(CCOCP(=O)(N[C@@H](Cc2ccccc2)C(=O)OC(C)C)N[C@@H](Cc2ccccc2)C(=O)OC(C)C)c2ncnc(N)c12`, for which the IC50 with CCRF-CEM is 5.77 µM; in the data set on HeLa S3, > 10 µM; in the data set with HL-60 it was 6.46 µM; with HepG2 it was 7.9 µM; in the data set on NHDF, > 10 µM; in data set [2], > 10 µM. The viability at 5 h, 10 µM in data set [1] stood at 129%. Besides, the Activity with HEK293 was determined as 85%.
